# ChEMBL document CHEMBL1130474, “Conformationally restricted arginine analogues as inhibitors of human nitric oxide synthase” (Bioorg Med Chem Lett, 1997)
# pKi: −log10 of the molar value.
# Legend:
# [1] = biological target: Nitric oxide synthase, inducible (Homo sapiens, UniProt P35228); test: Inhibitory constant for the inhibition of human Inducible nitric oxide synthase
# Nitric oxide synthase 1 = Nitric oxide synthase 1 (Homo sapiens, UniProt P29475); test: Inhibitory constant for the inhibition of human Neuronal nitric oxide synthase
# Nitric oxide synthase 3 = biological target: T1, Nitric oxide synthase 3 (Homo sapiens, UniProt P29474); test: Inhibitory constant for the inhibition of human Endothelial nitric oxide synthase
# T1 sequence (P29474 whole entry): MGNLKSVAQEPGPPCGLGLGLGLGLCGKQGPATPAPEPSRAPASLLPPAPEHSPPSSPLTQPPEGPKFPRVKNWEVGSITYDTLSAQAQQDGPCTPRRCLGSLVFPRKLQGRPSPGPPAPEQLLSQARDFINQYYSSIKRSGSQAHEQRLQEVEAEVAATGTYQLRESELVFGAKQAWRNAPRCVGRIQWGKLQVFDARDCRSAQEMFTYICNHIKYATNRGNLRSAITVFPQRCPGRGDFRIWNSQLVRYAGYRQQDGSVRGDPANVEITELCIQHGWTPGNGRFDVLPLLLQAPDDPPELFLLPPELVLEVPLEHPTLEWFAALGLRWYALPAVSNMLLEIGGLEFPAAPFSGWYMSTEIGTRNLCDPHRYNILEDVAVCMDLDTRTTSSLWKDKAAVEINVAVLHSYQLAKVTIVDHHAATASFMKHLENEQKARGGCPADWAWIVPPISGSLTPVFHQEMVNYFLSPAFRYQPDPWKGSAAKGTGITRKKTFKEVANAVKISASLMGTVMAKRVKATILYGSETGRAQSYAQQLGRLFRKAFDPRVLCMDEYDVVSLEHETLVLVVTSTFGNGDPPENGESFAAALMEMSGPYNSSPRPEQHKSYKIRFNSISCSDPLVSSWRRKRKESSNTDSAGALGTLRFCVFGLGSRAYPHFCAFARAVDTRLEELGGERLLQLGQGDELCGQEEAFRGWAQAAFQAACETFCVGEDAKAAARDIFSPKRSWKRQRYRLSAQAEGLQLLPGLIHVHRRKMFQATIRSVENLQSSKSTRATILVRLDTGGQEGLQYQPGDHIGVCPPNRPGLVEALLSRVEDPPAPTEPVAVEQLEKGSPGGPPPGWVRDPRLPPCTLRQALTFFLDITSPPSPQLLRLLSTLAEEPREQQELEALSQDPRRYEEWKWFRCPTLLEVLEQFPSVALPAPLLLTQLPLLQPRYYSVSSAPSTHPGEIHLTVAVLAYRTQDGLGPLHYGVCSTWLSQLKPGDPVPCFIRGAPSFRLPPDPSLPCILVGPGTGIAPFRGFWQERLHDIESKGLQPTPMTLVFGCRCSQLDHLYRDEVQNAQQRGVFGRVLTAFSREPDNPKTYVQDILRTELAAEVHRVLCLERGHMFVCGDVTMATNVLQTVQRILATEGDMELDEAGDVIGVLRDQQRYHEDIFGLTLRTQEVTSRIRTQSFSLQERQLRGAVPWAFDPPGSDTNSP
# Chain of Nitric oxide synthase 1 (P29475 whole entry): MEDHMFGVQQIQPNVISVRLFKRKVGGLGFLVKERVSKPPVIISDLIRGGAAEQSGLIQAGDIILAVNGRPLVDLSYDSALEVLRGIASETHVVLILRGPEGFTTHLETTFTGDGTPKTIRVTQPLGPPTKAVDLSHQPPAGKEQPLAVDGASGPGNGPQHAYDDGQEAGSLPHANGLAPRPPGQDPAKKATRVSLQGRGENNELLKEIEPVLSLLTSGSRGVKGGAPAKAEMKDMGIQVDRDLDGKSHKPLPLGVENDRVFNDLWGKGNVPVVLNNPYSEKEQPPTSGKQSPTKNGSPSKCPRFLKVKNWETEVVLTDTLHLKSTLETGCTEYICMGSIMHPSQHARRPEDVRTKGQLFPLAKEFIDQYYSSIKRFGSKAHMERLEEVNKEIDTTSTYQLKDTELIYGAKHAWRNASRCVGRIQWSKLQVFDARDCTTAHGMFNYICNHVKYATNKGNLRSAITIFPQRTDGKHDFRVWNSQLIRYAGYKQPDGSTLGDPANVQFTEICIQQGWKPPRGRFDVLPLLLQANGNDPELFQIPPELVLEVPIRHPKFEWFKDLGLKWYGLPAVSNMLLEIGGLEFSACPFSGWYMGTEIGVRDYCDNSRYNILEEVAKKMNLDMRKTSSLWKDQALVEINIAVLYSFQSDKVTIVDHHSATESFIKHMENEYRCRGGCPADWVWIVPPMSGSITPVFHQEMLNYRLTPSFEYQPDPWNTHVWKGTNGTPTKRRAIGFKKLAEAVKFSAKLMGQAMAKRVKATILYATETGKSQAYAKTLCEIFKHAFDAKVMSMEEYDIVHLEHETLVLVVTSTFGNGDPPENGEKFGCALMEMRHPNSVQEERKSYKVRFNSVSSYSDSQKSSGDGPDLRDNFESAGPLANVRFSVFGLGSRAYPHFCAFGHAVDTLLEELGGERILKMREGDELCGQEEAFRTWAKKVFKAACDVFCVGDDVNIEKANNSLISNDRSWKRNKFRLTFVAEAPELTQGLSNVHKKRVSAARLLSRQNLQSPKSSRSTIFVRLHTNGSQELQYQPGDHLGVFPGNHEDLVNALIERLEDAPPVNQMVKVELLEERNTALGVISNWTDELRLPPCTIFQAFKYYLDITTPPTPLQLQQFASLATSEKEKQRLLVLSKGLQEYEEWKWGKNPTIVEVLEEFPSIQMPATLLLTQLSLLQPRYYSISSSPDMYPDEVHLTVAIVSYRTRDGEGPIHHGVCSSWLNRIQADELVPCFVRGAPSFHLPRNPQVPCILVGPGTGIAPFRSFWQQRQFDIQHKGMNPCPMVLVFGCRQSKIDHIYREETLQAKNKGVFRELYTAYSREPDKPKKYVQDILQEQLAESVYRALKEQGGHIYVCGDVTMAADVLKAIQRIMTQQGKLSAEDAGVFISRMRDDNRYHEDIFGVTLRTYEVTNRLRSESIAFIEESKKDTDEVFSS
# Chain of Nitric oxide synthase, inducible (P35228 whole entry): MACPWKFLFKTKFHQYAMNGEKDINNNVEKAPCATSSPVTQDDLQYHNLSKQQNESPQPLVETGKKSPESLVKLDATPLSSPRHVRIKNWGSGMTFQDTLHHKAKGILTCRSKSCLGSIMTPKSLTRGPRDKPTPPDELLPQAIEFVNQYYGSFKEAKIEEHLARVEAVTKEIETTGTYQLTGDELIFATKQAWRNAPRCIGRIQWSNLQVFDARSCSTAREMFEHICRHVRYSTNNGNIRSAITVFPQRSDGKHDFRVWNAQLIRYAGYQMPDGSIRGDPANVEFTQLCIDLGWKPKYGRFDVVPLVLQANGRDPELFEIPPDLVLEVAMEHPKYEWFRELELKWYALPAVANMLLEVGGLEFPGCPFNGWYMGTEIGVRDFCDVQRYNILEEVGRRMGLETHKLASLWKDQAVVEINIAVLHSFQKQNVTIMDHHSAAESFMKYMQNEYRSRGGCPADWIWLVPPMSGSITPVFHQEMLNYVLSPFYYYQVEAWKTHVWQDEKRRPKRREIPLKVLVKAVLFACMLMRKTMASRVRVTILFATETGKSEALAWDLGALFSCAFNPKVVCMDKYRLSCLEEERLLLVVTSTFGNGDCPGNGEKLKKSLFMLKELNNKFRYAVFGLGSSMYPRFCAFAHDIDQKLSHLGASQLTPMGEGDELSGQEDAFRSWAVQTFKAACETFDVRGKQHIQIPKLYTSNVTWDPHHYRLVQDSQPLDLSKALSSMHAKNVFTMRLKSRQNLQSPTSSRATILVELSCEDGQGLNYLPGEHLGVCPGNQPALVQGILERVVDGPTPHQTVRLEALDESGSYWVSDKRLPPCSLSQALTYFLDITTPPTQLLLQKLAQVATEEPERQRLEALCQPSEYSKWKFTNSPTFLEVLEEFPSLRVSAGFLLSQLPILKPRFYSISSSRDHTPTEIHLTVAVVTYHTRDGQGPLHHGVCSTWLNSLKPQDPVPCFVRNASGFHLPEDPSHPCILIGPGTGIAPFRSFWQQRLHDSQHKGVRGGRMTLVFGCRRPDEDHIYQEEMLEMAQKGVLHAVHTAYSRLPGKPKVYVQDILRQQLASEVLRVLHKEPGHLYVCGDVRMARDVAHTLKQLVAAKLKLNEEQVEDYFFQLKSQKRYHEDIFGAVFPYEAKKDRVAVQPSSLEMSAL
SMILES,pKi [1],pKi (Nitric oxide synthase 1),pKi (Nitric oxide synthase 3)
NC(N)=Nc1ccccc1CC(N)C(=O)O (stereo not given),5.59,6.43,6.60
CNC(N)=Nc1cccc(CC(N)C(=O)O)c1 (stereo not given),4.02,5.08,5.06
CC(=N)Nc1cccc(CC(N)C(=O)O)c1 (stereo not given),4.09,4.54,4.41
C/N=C(/N)Nc1ccccc1CC(N)C(=O)O (stereo not given),6.22,6.39,6.57
N=C(N)Nc1cccc(CC(N)C(=O)O)c1 (stereo not given),4.00,4.36,4.34
CC(=N)Nc1ccccc1CC(N)C(=O)O (stereo not given),5.72,5.89,5.80
CC(=N)NCCC[C@H](N)C(=O)O [L-NIO],6.47,,6.09
